In patent US10301664B2, “Repurposing non-antimicrobial drugs and clinical molecules to treat bacterial infections” (Purdue Research Foundation, priority 2015, dated 2019):
In brackets after ≈: the same amount, converted by molar mass. Where two headings read alike, the source gives them in different places. Numbered stars: 1 amine (or outer) side, 2 acyl side, 3 side chain; on linkers, the order of the positions; unused ones are H or OH. Bridge positions count the residues as written; N and C are the ends. Square brackets hold non-standard residues; d marks the D form. Peptide text beside a SMILES is read from it. I, II: the chains in the order shown. Actinocin(9to1) = Cc1c2oc3c(C)ccc(C(=O)[*:1])c3nc-2c(C(=O)[*:2])c(N)c1=O; NMeV = CN[C@H](C(=O)O)C(C)C; Sar = CNCC(=O)O

Key:
[1] = system: MRSA USA300; test: Library hits: MIC/MBC against MRSA; type: cell-based, Staphylococcus aureus
[2] = system: vancomycin resistant E. faecium ATCC 700221 (VRE); test: Library hits: MIC/MBC against VRE; type: cell-based
[3] = Staphylococcus aureus, read-out: MBC
[4] = Staphylococcus aureus, read-out: MIC

| Structure (SMILES) | MBC [1, 3] [µM] | MIC [1, 4] [µM] | MIC ([2]; VRE, read-out: MIC) [µM] | other results |
| --- | --- | --- | --- | --- |
| CC(C)NCC(O)c1ccc(O)c(O)c1 (centres unmarked) [Isoproterenol] | 64 (≈ 13.5 µg/mL) | 16 (≈ 3.38 µg/mL) | > 16 |  |
| CCN(CC)CCOc1ccc(C(=C(Cl)c2ccccc2)c2ccccc2)cc1 [Clomid] | 32 (≈ 13 µg/mL) | 16 (≈ 6.5 µg/mL) | 16 (≈ 6.5 µg/mL) |  |
| Clc1ccccc1C(c1ccccc1)(c1ccccc1)n1ccnc1 [Clotrimazole] | 64 (≈ 22.1 µg/mL) | 4 (≈ 1.38 µg/mL) | > 16 |  |
| Clc1ccc(CO/N=C(\Cn2ccnc2)c2ccc(Cl)cc2Cl)c(Cl)c1 [Oxiconazole] | 32 (≈ 13.7 µg/mL) |  |  |  |
| CC/C(=C(\c1ccccc1)c1ccc(OCCN(C)C)cc1)c1ccccc1 [Tamoxifen] | 16 (≈ 5.94 µg/mL) | 16 (≈ 5.94 µg/mL) | > 16 |  |
| CSc1nc2cc(Cl)c(Oc3cccc(Cl)c3Cl)cc2[nH]1 [Triclabendazole] | 32 (≈ 11.5 µg/mL) | 8 (≈ 2.88 µg/mL) | > 16 |  |
| c1ccc(-c2ccc(C(c3ccccc3)n3ccnc3)cc2)cc1 (centres unmarked) [Bifonazole] | > 64 | 8 (≈ 2.48 µg/mL) | > 16 |  |
| NS(=O)(=O)c1cc(C(=O)O)c(NCc2ccco2)cc1Cl [Furosemide] |  | > 16 | 4 (≈ 1.32 µg/mL) |  |
| Clc1ccc(COC(Cn2ccnc2)c2ccc(Cl)cc2Cl)cc1 (centres unmarked) [Econazole] | 32 (≈ 12.2 µg/mL) | 4 (≈ 1.53 µg/mL) | > 16 |  |
| COc1cccc2c1C(=O)c1c(O)c3c(c(O)c1C2=O)C[C@@](O)(C(C)=O)C[C@@H]3O[C@H]1C[C@H](N)[C@H](O)[C@H](C)O1 [Daunorubicin] |  |  |  | MBC ([1]; Staphylococcus aureus): 16 µM (≈ 8.44 µg/mL); MIC ([1]; Staphylococcus aureus): 16 µM (≈ 8.44 µg/mL); MIC [2]: 8 µM (≈ 4.22 µg/mL) |
| CC(=O)Nc1nnc(S(N)(=O)=O)s1 [Acetazolamide] |  | > 16 | 1 (≈ 0.222 µg/mL) |  |
| CCCCCCNC(=O)n1cc(F)c(=O)[nH]c1=O [Carmofur] | 4 (≈ 1.03 µg/mL) | 2 (≈ 0.515 µg/mL) | > 16 |  |
| CC(C)c1ccc2c(c1)c(SC(C)(C)C)c(CC(C)(C)C(=O)O)n2Cc1ccc(Cl)cc1 [MK-886] |  |  | 8 (≈ 3.78 µg/mL) | MBC ([1]; MRSA, read-out: MBC): 16 µM (≈ 7.55 µg/mL); MIC ([1]; MRSA, read-out: MIC): 8 µM (≈ 3.78 µg/mL) |
| CN(C)CCOc1ccc(/C(=C(/CCCl)c2ccccc2)c2ccccc2)cc1 [Toremifene] | 16 (≈ 6.5 µg/mL) | 16 (≈ 6.5 µg/mL) | 16 (≈ 6.5 µg/mL) |  |
| Cc1c2oc3c(C)ccc(C(=O)N[C@@H]4C(=O)N[C@H](C(C)C)C(=O)N5CCC[C@H]5C(=O)N(C)CC(=O)N(C)[C@@H](C(C)C)C(=O)O[C@@H]4C)c3nc-2c(C(=O)N[C@@H]2C(=O)N[C@H](C(C)C)C(=O)N3CCC[C@H]3C(=O)N(C)CC(=O)N(C)[C@@H](C(C)C)C(=O)O[C@@H]2C)c(N)c1=O [Dactinomycin] (I: T[dV]P[Sar][NMeV] / II: T[dV]P[Sar][NMeV]; ester I:1-I:C, II:1-II:C; linker I:N-II:N via Actinocin(9to1)) |  |  |  | MIC ([1]; Staphylococcus aureus): > 16 µM; MIC [2]: 0.5 µM (≈ 0.628 µg/mL) |
| O=c1[nH]c(=O)n(C2CCCO2)cc1F (centres unmarked) [Ftorafur] |  | > 16 | 16 (≈ 3.2 µg/mL) |  |
| CC(=O)[C@]1(O)Cc2c(O)c3c(c(O)c2[C@@H](O[C@H]2C[C@H](N)[C@H](O)[C@H](C)O2)C1)C(=O)c1ccccc1C3=O [Idarubicin] | 4 (≈ 1.99 µg/mL) | 4 (≈ 1.99 µg/mL) | 4 (≈ 1.99 µg/mL) |  |
| Clc1ccc(COC(Cn2ccnc2)c2ccc(Cl)cc2Cl)c(Cl)c1 (centres unmarked) [Miconazole] | 8 (≈ 3.33 µg/mL) | 4 (≈ 1.66 µg/mL) | > 16 |  |
| Cc1nc2ccc(CN(C)c3ccc(C(=O)N[C@@H](CCC(=O)O)C(=O)O)s3)cc2c(=O)[nH]1 [Raltitrexed] |  | > 16 | 2 (≈ 0.917 µg/mL) |  |
| O=c1[nH]cc(F)c(=O)[nH]1 [5-Fluorouracil] | 16 (≈ 2.08 µg/mL) | 4 (≈ 0.52 µg/mL) | > 16 |  |
| COc1cccc2c1C(=O)c1c(O)c3c(c(O)c1C2=O)C[C@@](O)(C(=O)CO)C[C@@H]3O[C@H]1C[C@H](N)[C@@H](O)[C@H](C)O1 [Epirubicin] | 64 (≈ 34.8 µg/mL) | 16 (≈ 8.7 µg/mL) | 8 (≈ 4.35 µg/mL) |  |
